According to patent US8575170B2, “Flurbiprofen analogs and methods of use in treating cancer” (The Regents of the Unversity of Colorado, a body corporate, priority 2010, dated 2013):
Read-outs that look alike come from different tables or passages of the source.

What was measured:
Panc-203 = assay: MTT cell viability, Panc-203; assay type: cell-based; conditions: Homo sapiens, Panc203, 96 h; Pancreatic cancer cells Panc-203; 4 days incubation
From the text: (§1) The ability of the flurbiprofen analog compounds of the invention to inhibit cancer cell growth and survival (viability) in a variety of cancer lines was examined in a standard MTT assay for cell viability, as detailed in Example 2.
(§2) Similar results were obtained for the effect of the B1031 compound on the 14 pancreatic tumor cells lines shown in Table 3 below, where the dose dependent effect of the compound on survival of the pancreatic cancer cell lines is shown in FIG. 5.
(§3) The studies reported in Tables 1-3 above were carried out by incubating the cells in the test compound for four days, under standard cell-culture conditions, and measuring cell survival on day 5 (see Example 2).
(§4) Cell growth and survival following treatment with N—[(S)-2-Fluoro-α-methyl-4-biphenylacetyl]-[L-(4-phenylphenyl)alanine]-N-(2,2,6,6-tetramethyl-4-piperidinyl)amide (GCBH-110=B1031; (S)-Fmba-L-Bip-Atmp) were measured by a rapid colorimetric assay based on the tetrazolium salt MTT (3-(4,5-dimethylthiazol-2-yl)-2,5-diphenyl tetrazolium bromide) (Mosmann, J. Immunol. Methods 65: 55-63, 1983, with minor modifications).
(§5) Briefly, approximately 1,000-5,000 cancer cells from 15 different cancer cells lines were plated in 100 μL of growth medium in 96-well flat-bottomed microtiter plates. Cells were incubated overnight to allow recovery. […] Absorbance was immediately determined using a scanning multiwell plate reader.

H290 = assay: MTT cell viability, H290; assay type: cell-based; conditions: NCI-H290, 96 h; Mesothelioma lung cell line H290; 4 days incubation
Experimental: as §1, §3, §4
as §5, with “recovery. Compounds to be tested were added to the cells in triplicate in a range of concentrations and the cells were incubated at 37° C., 5% CO2, with 100% humidity. Control cells were treated in the same way without antagonists.” for “recovery.”

MSK921 = assay: MTT cell viability, MSK921; assay type: cell-based; conditions: Head and neck cancer cell line MSK921
Experimental: as §1
(§6) A similar study was conducted on 14 […] cancer cell lines, identified in Table 2.
as §4
(§7) Briefly, approximately 1,000-5,000 cancer cells from 15 different cancer cells lines were plated in 100 μL of growth medium in 96-well flat-bottomed microtiter plates. Cells were incubated overnight to allow recovery. Compounds to be tested were added to the cells in triplicate in a range of concentrations and the cells were incubated at 37° C., 5% CO2, with 100% humidity. Control cells were treated in the same way without antagonists. […] Plates were incubated for 4 days, allowing sufficient time for cell replication and compound-induced cell death to occur. […] Absorbance was immediately determined using a scanning multiwell plate reader. […]

H322C = assay: MTT cell viability, H322C; assay type: cell-based; conditions: 96 h; Adenocarcinoma lung cell line H322C; 4 days incubation
Experimental: as §1, §3, §4
(§8) Briefly, approximately 1,000-5,000 cancer cells from 15 different cancer cells lines were plated in 100 μL of growth medium in 96-well flat-bottomed microtiter plates. Cells were incubated overnight to allow recovery. Compounds to be tested were added to the cells in triplicate in a range of concentrations and the cells were incubated at 37° C., 5% CO2, with 100% humidity. Control cells were treated in the same way without antagonists. […] Absorbance was immediately determined using a scanning multiwell plate reader.

H2122 = assay: MTT cell viability, H2122 lung carcinoma cell line; assay type: cell-based; conditions: for IC50: Homo sapiens
Experimental: as §1
The IC50 values given in Tables 1-4 were measured using the B1031 ([…]) compound) shown in Section IIB above. To confirm the generality of the results with respect to other fluribprofen analogs prepared in accordance with the invention, IC50 values for the other 11 analog compounds given in Section IIB were similarly determined for the H2122 lung carcinoma cell line.
as §3, §4
Briefly, approximately 1,000-5,000 cancer cells from 15 different cancer cells lines were plated in 100 μL of growth medium in 96-well flat-bottomed microtiter plates. Cells were incubated overnight to allow recovery. Compounds to be tested were added to the cells in triplicate in a range of concentrations and the cells were incubated at 37° C., 5% CO2, with 100% humidity. Control cells were treated in the same way without antagonists. […] Plates were incubated for 4 days, allowing sufficient time for cell replication and compound-induced cell death to occur. On day 5, 25 μL of a 2 mg/mL solution of MTT (Sigma) dissolved in RMPI-1640 was added to each well. The plate was incubated for 4 h at 37° C. The supernatant liquid was removed and the blue formazan complex was dissolved by adding 100 μL of 0.02 N HCl in 75% isopropanol to all wells. Absorbance was immediately determined using a scanning multiwell plate reader.

WM375 = assay: MTT cell viability, WM375; assay type: cell-based; conditions: Melanoma cell line WM375
From the text: as §1
The results for the several cell lines above were also consistent with IC50 values measured for two melanoma cell lines shown in Table 4 below.
as §4, §8

H417 = assay: MTT cell viability, H417; assay type: cell-based; conditions: Homo sapiens, NCI-H417, 96 h; SCLC lung cell line H417; 4 days incubation
Experimental: as §1, §3, §4, §8

[1] = system: MiaPaCa pancreatic carcinoma solid tumor xenograft; assay: MiaPaCa pancreatic carcinoma xenograft in nude mice; assay type: in vivo, athymic nude mice; conditions: 5 mg/kg/every day intraperitoneal, beginning on the eleventh day following implantation, FIG. 12
Experimental: Similar results were obtained when the treatment method was applied to animals having pancreatic carcinoma implants, as shown in FIG. 12.
In a second study, athymic nude mice were implanted subcutaneously with suspensions of approximately 2 million MiaPaCa pancreatic carcinoma cells, in Matrigel suspension. […] The compound was initially dissolved in dimethyl sulfoxide (DMSO) and diluted with medium. Tumor size was measured with a caliper three times per week, and tumor volume calculated as above. At autopsy, tumors were removed and weighed.

SW1990 = assay: MTT cell viability, SW1990; assay type: cell-based; conditions: Homo sapiens, 96 h; Pancreatic cancer cells SW1990; 4 days incubation
From the text: as §1, §2, §3, §4, §5

S84 = assay: MTT cell viability, S84; assay type: cell-based; conditions: Head and neck cancer cell line S84
Experimental: as §1, §6, §4, §7

[2] = system: U251 malignant glioma cells; assay: Inhibition of U251 malignant glioma cells; assay type: cell-based; conditions: Homo sapiens, U-251; U251 brain cancer cell line, FIG. 6B
Experimental: FIGS. 6A and 6B show the loss in cell viability in HT-29 colon cancer cells, in response to increasing concentrations of GH 502 (GCBH 118) (FIG. 6A), and the effect of various treatments, including increasing concentration of GH501 (GCBH 110) on U251 malignant glioma cells and BTIC EF12 brain tumor initiating stem cells (FIG. 6B).
The study shown in FIG. 6A examined the effect of GCBH-118 (GH502) on an HT-29 colon cancer cell, showing an IC50 value of about 1 μM. […] The graph indicates an IC50 value for the B1031 compound against the U251 brain cancer cell line of between 2 and 10 μM.

A549 = assay: MTT cell viability, A549; assay type: cell-based; conditions: Homo sapiens, 96 h; Adenocarcinoma lung cell line A549; 4 days incubation
Experimental: as §1, §3, §4, §8

H1703 = assay: MTT cell viability, H1703; assay type: cell-based; conditions: Homo sapiens, NCI-H1703, 96 h; Adenosquamous lung cell line H1703; 4 days incubation
Experimental: as §1, §3, §4, §8

CaLu6 = assay: MTT cell viability, CaLu6; assay type: cell-based; conditions: Homo sapiens, Calu-6, 96 h; Adenocarcinoma lung cell line CaLu6; 4 days incubation
Experimental: as §1, §3, §4, §8

H446 = assay: MTT cell viability, H446; assay type: cell-based; conditions: Homo sapiens, NCI-H446, 96 h; SCLC lung cell line H446; 4 days incubation
Experimental: as §1, §3, §4, §8

CaLu3 = assay: MTT cell viability, CaLu3; assay type: cell-based; conditions: Homo sapiens, Calu-3, 96 h; Adenocarcinoma lung cell line CaLu3; 4 days incubation
Experimental: as §1, §3, §4, §8

H3225a = assay: MTT cell viability, H3225a; assay type: cell-based; conditions: 96 h; Adenocarcinoma lung cell line H3225a; 4 days incubation
Experimental: as §1, §3, §4, §8

IC50 (Panc-203): 700 nM
IC50 (H290): 1300 nM
IC50 (H322C): 450 nM
IC50 (H2122; NCI-H2122, 96 h, Adenocarcinoma lung cell line H2122, 4 days incubation, read-out: IC50): 150 nM
IC50 (H2122; NCI-H2122, IC50 values for the H2122 lung carcinoma cell line, Table 5, read-out: H2122 In vitro): 150 nM
IC50 (H417): 1400 nM
IC50 (SW1990): 1500 nM
IC50 [2]: 2000 to 10000 nM
IC50 (A549): 550 nM
IC50 (H1703): 360 nM
IC50 (CaLu6): 340 nM
IC50 (H446): 440 nM
IC50 (CaLu3): 1300 nM
IC50 (H3225a): 450 nM
Compound: C[C@H](C(=O)N[C@@H](Cc1ccc(-c2ccccc2)cc1)C(=O)NC1CC(C)(C)NC(C)(C)C1)c1ccc(-c2ccccc2)c(F)c1 [GCBH-110, N—[(S)-2-Fluoro-α-methyl-4-biphenylacetyl]-[L-(4-phenylphenyl)alanine]-N-(2,2,6,6-tetramethyl-4-piperidinyl)amide]
IC50 (MSK921): 770 nM
activity in inhibiting H2122 cells relative to Aza-dC (H2122; H2122 lung cancer cell line, versus DNA demethylase inhibitor Aza-dC): many-fold more active
activity in inhibiting H2122 cells relative to Syn275 (fold less active) (H2122; H2122 lung cancer cell line, versus HDACi Syn275): about 4 fold
IC50 (WM375): 280 nM
inhibition of MiaPaCa pancreatic carcinoma tumor growth [1]: 66%
IC50 (S84): 230 nM
